In one experiment the target is full-length human PLD2 (Homo sapiens (Human), UniProt O14939). Put plainly: Evaluation of human PLD2 enzyme inhibitory activity (Amplex Red / choline oxidase fluorescence). Type of experiment: biochemical. The following applies: full-length human PLD2 enzyme; read-out: PLD2 IC50. In short, it runs like this: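 Enzyme was N-terminal FLAG-tagged full-length human PLD2 (1-933), expressed in Expi293F cells and anti-FLAG purified. Compound (5% DMSO final) was incubated with enzyme (6 nmol/L solution) and 1,2-diheptanoyl-PC (6 mmol/L solution) in HEPES pH 7.5, KCl, EGTA, MgCl2, NP-40, BSA buffer for 60 min at room temperature. Choline was detected with Amplex Red/choline oxidase/HRP.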
full-length human PLD2, sequence (O14939 whole entry): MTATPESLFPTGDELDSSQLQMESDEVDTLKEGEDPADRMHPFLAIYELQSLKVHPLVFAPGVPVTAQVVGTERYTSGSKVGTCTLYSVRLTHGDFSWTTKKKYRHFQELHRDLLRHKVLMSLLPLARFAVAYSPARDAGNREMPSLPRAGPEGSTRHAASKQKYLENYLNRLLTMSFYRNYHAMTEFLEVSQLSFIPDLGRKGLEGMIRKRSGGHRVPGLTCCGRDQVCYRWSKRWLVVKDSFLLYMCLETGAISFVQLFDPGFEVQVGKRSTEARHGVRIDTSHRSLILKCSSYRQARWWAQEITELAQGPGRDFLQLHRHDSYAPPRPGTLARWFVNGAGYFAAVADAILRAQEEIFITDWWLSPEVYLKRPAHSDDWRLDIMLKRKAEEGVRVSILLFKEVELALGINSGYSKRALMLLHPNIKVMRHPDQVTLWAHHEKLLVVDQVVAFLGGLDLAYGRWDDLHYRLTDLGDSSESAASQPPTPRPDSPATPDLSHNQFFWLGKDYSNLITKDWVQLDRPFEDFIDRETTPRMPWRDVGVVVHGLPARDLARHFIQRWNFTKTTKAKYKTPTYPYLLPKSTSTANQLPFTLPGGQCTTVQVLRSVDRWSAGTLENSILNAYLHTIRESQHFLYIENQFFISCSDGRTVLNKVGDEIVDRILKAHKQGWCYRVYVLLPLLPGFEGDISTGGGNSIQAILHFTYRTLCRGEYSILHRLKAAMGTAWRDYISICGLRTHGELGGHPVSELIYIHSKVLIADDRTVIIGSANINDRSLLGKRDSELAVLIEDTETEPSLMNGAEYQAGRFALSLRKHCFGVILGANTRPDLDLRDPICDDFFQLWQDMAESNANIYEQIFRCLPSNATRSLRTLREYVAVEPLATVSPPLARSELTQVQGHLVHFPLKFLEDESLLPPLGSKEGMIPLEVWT

Another experiment addresses full-length human PLD1 (Homo sapiens (Human), UniProt Q13393). The experiment can be described thus: Evaluation of human PLD1 enzyme inhibitory activity (Amplex Red / choline oxidase fluorescence). The settings on record: full-length human PLD1 enzyme; read-out: PLD1 IC50. Type of experiment: biochemical. In outline:
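N-terminally FLAG-tagged full-length human PLD1 (1-1036), expressed in Expi293F and FLAG-purified, incubated with compound (5% DMSO final) and 1,2-diheptanoyl-sn-glycero-3-phosphocholine for 60 min at room temperature in HEPES pH 7.5 buffer. Released choline detected by Amplex Red/choline oxidase/HRP fluorescence.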

Each structure is given as a SMILES string.

full-length human PLD1, sequence (Q13393 other isoform, or with tags, fused parts or gaps): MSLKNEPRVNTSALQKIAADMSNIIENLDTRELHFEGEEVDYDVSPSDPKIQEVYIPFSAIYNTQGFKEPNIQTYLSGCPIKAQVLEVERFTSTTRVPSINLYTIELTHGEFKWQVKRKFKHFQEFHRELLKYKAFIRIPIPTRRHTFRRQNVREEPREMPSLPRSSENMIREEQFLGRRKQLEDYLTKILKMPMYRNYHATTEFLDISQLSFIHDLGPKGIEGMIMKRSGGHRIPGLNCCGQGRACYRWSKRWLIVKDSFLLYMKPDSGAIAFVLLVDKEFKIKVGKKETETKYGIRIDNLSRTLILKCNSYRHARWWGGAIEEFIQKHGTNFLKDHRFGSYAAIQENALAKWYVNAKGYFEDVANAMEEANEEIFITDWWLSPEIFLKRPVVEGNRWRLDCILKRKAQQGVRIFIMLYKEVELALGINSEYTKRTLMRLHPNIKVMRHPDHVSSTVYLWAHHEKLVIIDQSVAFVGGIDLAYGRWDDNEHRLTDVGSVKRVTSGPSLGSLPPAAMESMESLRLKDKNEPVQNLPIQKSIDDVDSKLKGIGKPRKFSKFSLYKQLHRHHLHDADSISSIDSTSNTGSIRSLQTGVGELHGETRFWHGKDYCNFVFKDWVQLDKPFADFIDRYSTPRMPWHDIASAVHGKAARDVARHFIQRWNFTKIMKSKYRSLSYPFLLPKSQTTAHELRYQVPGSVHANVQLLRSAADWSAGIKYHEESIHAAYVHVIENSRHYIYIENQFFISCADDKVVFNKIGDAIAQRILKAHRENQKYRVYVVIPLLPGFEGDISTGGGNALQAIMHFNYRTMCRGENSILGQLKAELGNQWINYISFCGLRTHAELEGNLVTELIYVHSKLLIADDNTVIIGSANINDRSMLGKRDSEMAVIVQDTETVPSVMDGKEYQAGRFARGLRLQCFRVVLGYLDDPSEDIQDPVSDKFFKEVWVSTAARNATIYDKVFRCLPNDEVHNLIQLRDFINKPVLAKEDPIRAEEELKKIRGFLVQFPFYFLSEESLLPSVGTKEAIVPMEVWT

Usually IC50 stands for the midpoint of a concentration-inhibition curve. Turning to `C[C@@H](C[C@H]1CC[C@]2(CC1)OC(=O)NN=C2c1cc(Cl)ccc1Cl)NC(=O)c1cc2ccccn2c1` [Example 323], the IC50 at full-length human PLD2 was less than 10 nM; on full-length human PLD1, 10 nM.
In the same order, the values of `C[C@@H](C[C@H]1CC[C@]2(CC1)OC(=O)NN=C2c1cc(Cl)ccc1Cl)NC(=O)c1cn2ccccc2n1` [Example 324] are 22 nM and 20 nM.
In the same order, the values of `C[C@@H](C[C@H]1CC[C@]2(CC1)OC(=O)NN=C2c1cc(C#N)ccc1Br)NC(=O)c1cnn(C)c1` [Example 325] are less than 10 nM and 15 nM.
The matching figures for `Cc1cc(C(=O)N[C@@H](C)CN2CCC3(CC2)OC(=O)NN=C3c2ccc(C#N)cc2C(F)(F)F)[nH]n1` [Example 326]: 38 nM and 54 nM.
As to `CNC(=O)C(=O)N[C@@H](C)CN1CCC2(CC1)OC(=O)NN=C2c1ccc(C#N)cc1C(F)(F)F` [Example 327], the IC50 at full-length human PLD2 turned out to be 51 nM; on full-length human PLD1, 110 nM.
As for `CNC(=O)C(=O)N[C@@H](C)CN1CCC2(CC1)OC(=O)NN=C2c1ccc(Br)cc1C(F)(F)F` [Example 328], the results for the IC50 at full-length human PLD2 and at full-length human PLD1 were 34 nM and 48 nM, respectively.
The matching figures for `CNC(=O)C(=O)NC[C@H](C)N1CCC2(CC1)OC(=O)NN=C2c1ccc(C#N)cc1Br` [Example 329]: less than 10 nM and 51 nM.
In the same order, the values of `CNC(=O)C(=O)NC[C@@H](C)N1CCC2(CC1)OC(=O)NN=C2c1ccc(C#N)cc1Br` [Example 330] are 26 nM and 3150 nM.
In the same order, the values of `Cc1cc(C(=O)N[C@@H](C)CN2CCC3(CC2)OC(=O)NN=C3c2ccc(Br)cc2C(F)(F)F)[nH]n1` [Example 331] are 22 nM and 32 nM.
`Cc1cc(C(=O)NC[C@@H](C)N2CCC3(CC2)OC(=O)NN=C3c2ccc(C#N)cc2Br)[nH]n1` [Example 332]: the IC50 worked out at 15 nM on full-length human PLD2 and 2600 nM on full-length human PLD1.
As for `[2H]C([2H])([C@H](C)NC(=O)C(=O)NC)N1CCC2(CC1)OC(=O)NN=C2c1ccc(F)cc1Br` [Example 333], the IC50 at full-length human PLD2 is less than 10 nM; at full-length human PLD1 it was 25 nM.
`[2H]C([2H])([C@H](C)NC(=O)c1cnn(C)c1)N1CCC2(CC1)OC(=O)NN=C2c1ccc(F)cc1Br` [Example 334]: the IC50 at full-length human PLD2 is less than 10 nM; at full-length human PLD1, 26 nM.
The matching figures for `Cc1cc(C(=O)NC[C@H](C)N2CCC3(CC2)OC(=O)NN=C3c2ccc(C#N)cc2Br)[nH]n1` [Example 335]: less than 10 nM and 126 nM.
The matching figures for `C[C@@H](CN1CCC2(CC1)OC(=O)NN=C2c1ccc(C#N)cc1Br)NC(=O)c1cnn(C)c1` [Example 336]: less than 10 nM and 33 nM.
Turning to `C[C@@H](CN1CCC2(CC1)OC(=O)NN=C2c1ccc(C(N)=O)cc1Br)NC(=O)c1cnn(C)c1` [Example 337], the 50% inhibitory concentration (IC50) on full-length human PLD2 was 28 nM; at full-length human PLD1, 74 nM.
In the same order, the values of `CNC(=O)C(=O)N[C@@H](C)[C@H](C)[C@H]1CC[C@]2(CC1)OC(=O)NN=C2c1cc(C#N)ccc1Br` [Example 338] are less than 10 nM and 24 nM.
In the case of `C[C@H](NC(=O)c1cnn(C)c1)[C@H](C)[C@H]1CC[C@]2(CC1)OC(=O)NN=C2c1cc(C#N)ccc1Br` [Example 339], the IC50 was 10 nM on full-length human PLD2 and 39 nM at full-length human PLD1.

The values above are taken from patent US20240101572A1, “DIHYDROOXADIAZINONE COMPOUND AND PHARMACEUTICAL USE THEREOF” (Japan Tobacco Inc., priority 2022, published 2024).
